Where two headings read alike, the source gives them in different places. Non-standard residues stand in square brackets, D forms with d. Residues, ends and D or L forms follow the SMILES beside them. No end group written: not given here. ξ: configuration not given here. Ac6c = NC1(C(=O)O)CCCCC1; ξDap = NCC(N)C(=O)O
Columns and labels:
[1] = mouse serum, 45-minute digestion, MALDI-MS peak height
Procedure: (§2) Owing to the fact that the use of diluted serum increases peptide recovery as well as retards the reaction kinetics to a manageable rate, the experiments were conducted using 25% aqueous sera.
(§3) For serum stability studies, 10 μl of an aqueous peptide stock solution containing about 0.8 mg/ml peptide was added to 200 μl 25% aqueous pooled mouse or human serum (Sigma, St. Louis, Mo.), according to the process described in M. F. Powell et al, Pharmacol Res, 10: 1268–1273 (1993). The peptide-serum mixture was thermostated at 37° C. After 0 minutes, 45 minutes, 2 hours and 4 hours, three samples of each peptide were taken and precipitated by the addition of 40 μl 15% aqueous trichloroacetic acid. The samples were stored at 4° C. for 20 minutes and centrifuged. The peptides and some remaining serum proteins were recovered in the supernatant after the trichloroacetic acid precipitation. The supernatants were immediately frozen on dry-ice and 220 μl of each were analyzed on RP-HPLC. A mouse serum and two different batches of the same SIGMA catalog number of human sera (human 1, approximately 1 year old, and human 2, approximately 1 month old) were also used.
(§4) The lyophilized samples were redissolved in 0.1 aqueous TFA and submitted for matrix assisted laser desorption/ionization (MALDI-MS).
(§5) The missing residues are indicated (e.g—C2 means that the C-terminal two residues are cleaved off). […] In Table 4, the relative amounts of the degradation products are estimated based on the MALDI-MS peak heights. 0=not detected; 1=very weak (below 5000), 2=weak (5–10000), 3=medium (10–15000), 4=strong (15000-uncleaved molecular ion at 25–30000), 5=very strong (above uncleaved molecular ion).

[2] = system: sheep erythrocytes; experiment: Hemolytic activity, release of hemoglobin; settings: for Absorbence at 405 nm: one hour, 39° C.; for toxicity to sheep erythrocytes (in words): 256 μM concentration
Procedure: To determine whether native and modified pyrrhocoricin peptides were toxic to mammalian cells, several peptides from Example 1 above, a positive control, and a negative control were examined for hemolytic activity. Hemolytic activity was assayed with sheep erythrocytes suspended in Alsever's solution (BioWhittaker, Walkersville, Md.), and diluted with Dulbecco's phosphate-buffered saline, pH 7.2. Thirty μL of a 1% suspension of the red blood cells was incubated with agitation at 39° C. with 30 μL of 40 to 256 μM of each of the following peptides dissolved in phosphate buffered saline for one hour and centrifuged at 1000 g for five minutes. Fifty μL of the supernatant was collected and the release of hemoglobin was detected by measuring the ultraviolet absorbences of triplicate samples of the 40 μM or 256 μM test peptides and the control peptides at 405 nm.

[3] = after 8 hours of digestion, all sera studied
Procedure: as §2, §3, §4

[4] = in vitro; settings: mouse, 25% aqueous pooled mouse serum
Procedure: as §2, §3, §4, §5

[5] = In vivo toxicity control, uninfected mice; parameters: species or system mice of CD-1 strain; settings: 50 mg/kg dose, intravenous
[6] = for Degradation product −C1, relative amount / Degradation product −C2, relative amount / Degradation product −C3, relative amount / Degradation product −C6, relative amount / Degradation product −N3, C2, relative amount / Degradation product −N3, relative amount / Degradation product −N5, C2, relative amount / Degradation product −N5, relative amount: 45-minute digestion
Procedure: as §2, §3, §4, §5

[7] = within a four-hour period; cited from earlier work
[8] = within a four-hour period; cited from earlier work; remark: listed apart in the source
[9] = system: bacteria; settings: cited from earlier work
[10] = native glycosylated drosocin; cited from earlier work
[11] = system: Micrococcus luteus; settings: read-out: IC50 in μM against Micrococcus luteus; 30° C., 24 hours; for Peptide 22 original assay (a)
Procedure: (§1) Growth inhibition assays were performed using the peptides of Example 1 and the Gram positive microorganisms Micrococcus luteus and Bacillus megaterium, and the Gram negative microorganisms, Escherichia coli D22, Agrobacterium tumefaciens, and Salmonella typhimurium. Anti-bacterial assays were performed in sterilized 96-well plates (Nunc F96 microtiter plates) with a final volume of 100 μl as described in Bulet (1996), cited above. Briefly, 90 μl of a suspension of a midlogarithmic phase bacterial culture at an initial 600 nm UV absorbence of 0.001 in Luria-Bertani rich nutrient medium was added to 10 μl of serially diluted peptides in sterilized water. The final peptide concentrations ranged between 0.15 and 80 μM. The plates were incubated at 30° C. for 24 hours with gentle shaking, and the growth inhibition was measured by recording the increase of the UV absorbence at 600 nm on an SLT Labinstruments 400 ATC microplate reader. The experiments were conducted over a 7-month period.

[12] = system: Agrobacterium tumefaciens; settings: read-out: IC50 in μM against Agrobacterium tumefaciens; 30° C., 24 hours; for Peptide 22 original assay (a)
Procedure: as §1

[13] = system: Escherichia coli D22; settings: read-out: IC50 in μM against Escherichia coli D22; 30° C., 24 hours; for Peptide 22 original assay (a)
Procedure: as §1

[14] = system: Bacillus megaterium; settings: read-out: IC50 in μM against Bacillus megaterium; 30° C., 24 hours; for Peptide 22 original assay (a)
Procedure: as §1

[15] = system: Salmonella typhimurium; settings: read-out: IC50 in μM against Salmonella typhimurium; 30° C., 24 hours; for Peptide 22 original assay (a)
Procedure: as §1

[16] = system: COS cells; experiment: Direct killing of immortalized COS cells; type: cell-based
From the text: In another toxicity assay, COS cell survival was studied for pyrrhocoricin and cecropin B (Bachem Biosciences, King of Prussia, Pa.) as the positive control.

[17] = human 1 serum (approximately 1 year old)
[18] = human 2 serum (approximately 1 month old)

Compound	Degradation product −C1, relative amount [1]	Degradation product −C2, relative amount [1]	Degradation product −C3, relative amount [1]	Degradation product −C6, relative amount [1]	Degradation product −N3, C2, relative amount [1]	Degradation product −N3, relative amount [1]	Degradation product −N5, C2, relative amount [1]	Degradation product −N5, relative amount [1]	Absorbence at 405 nm ([2]; 40 μM peptide)	toxicity to sheep erythrocytes (in words) [2]	Absorbence at 405 nm ([2]; 256 μM peptide)	remaining at 8 h [4] [%]	toxicity of peptide alone (in words) [5]	Degradation product −C1, relative amount [6, 17]	Degradation product −C2, relative amount [6, 17]	Degradation product −C3, relative amount [6, 17]	Degradation product −C6, relative amount [6, 17]	Degradation product −N3, C2, relative amount [6, 17]	Degradation product −N3, relative amount [6, 17]	Degradation product −N5, C2, relative amount [6, 17]	other results
CC[C@H](C)[C@H](NC(=O)[C@@H]1CCCN1C(=O)[C@H](CCCNC(=N)N)NC(=O)[C@@H]1CCCN1C(=O)[C@@H]1CCCN1C(=O)[C@@H](NC(=O)[C@@H]1CCCN1C(=O)[C@H](CCCNC(=N)N)NC(=O)[C@@H]1CCCN1C(=O)[C@H](CC(C)C)NC(=O)[C@H](Cc1ccc(O)cc1)NC(=O)[C@H](CO)NC(=O)CNC(=O)[C@H](CCCCN)NC(=O)[C@H](CC(=O)O)NC(=O)C1(N)CCCCC1)[C@@H](C)O)C(=O)N[C@@H](Cc1ccc(O)cc1)C(=O)N[C@@H](CC(N)=O)C(=O)N[C@@H](CCCNC(=N)N)C(=O)NC(CNC(C)=O)C(N)=O (stereo partly drawn) [Peptide 21, 1-aminocyclo-hexane carboxylic acid (Chex)-Pyrrhocoricin-β-acetyl-2,3-diamino propionic amide [Dap(Ac)]] (H-[Ac6c]DKGSYLPRPTPPRPIYNR[ξDap](Ac)-NH2)	0	2 (2=weak (5–10000))	0	0	0	0	0	2 (2=weak (5–10000))	0.110 ± 0.049	completely non-toxic	0.143 ± 0.006	20	Neither Peptides 1 nor 21 [SEQ ID NOS: 6 and 22, respectively] alone showed any toxicity	0	4 (4=strong (15000-uncleaved molecular ion at 25–30000))	2 (2=weak (5–10000))	0	0	0	1 (1=very weak (below 5000))	peptide still present (in words) [3]: traces; Degradation product −N5, relative amount [6, 17]: 2 (2=weak (5–10000)); Degradation product −C1, relative amount [6, 18]: 0; Degradation product −C2, relative amount [6, 18]: 4 (4=strong (15000-uncleaved molecular ion at 25–30000)); Degradation product −C3, relative amount [6, 18]: 0; Degradation product −C6, relative amount [6, 18]: 0; Degradation product −N3, C2, relative amount [6, 18]: 0; Degradation product −N3, relative amount [6, 18]: 0; Degradation product −N5, C2, relative amount [6, 18]: 1 (1=very weak (below 5000)); Degradation product −N5, relative amount [6, 18]: 2 (2=weak (5–10000)); resistance in human serum compared with Peptide 1 (in words) ([6]; human serum): generally more resistant than Peptide 1
GKPRPYSPRPTSHPRPIRV [drosocin]																					degradation in diluted human serum (in words) [7]: completely degraded; degradation in diluted mouse serum (in words) [8]: completely degraded; time needed to kill bacteria in vitro [9]: 12 to 24 h; anti-bacterial activity when injected into mice (in words) [10]: no anti-bacterial activity
VDKGSYLPRPTPPRPIYNRN-NH2 [Peptide 1]	2 (2=weak (5–10000))	2 (2=weak (5–10000))	0	0	0	0	0	0	0.108 ± 0.015	completely non-toxic	0.0135 ± 0.005	20	Neither Peptides 1 nor 21 [SEQ ID NOS: 6 and 22, respectively] alone showed any toxicity	3 (3=medium (10–15000))	4 (4=strong (15000-uncleaved molecular ion at 25–30000))	3 (3=medium (10–15000))	1 (1=very weak (below 5000))	0	0	0	IC50 [11]: 10 µM; IC50 [12]: < 0.075 µM; IC50 [13]: < 0.075 µM; IC50 [14]: 5 µM; IC50 [15]: 0.6 µM; Cell Count after Treatment ([16]; 5 μM peptide): 18 ± 4; Cell Count after Treatment ([16]; 10 μM peptide): 12 ± 4; Cell Count after Treatment ([16]; 50 μM peptide): 11 ± 1; effect on cell count and rate of proliferation (in words) ([16]; up to 50 μM/mL concentration): did not change; Degradation product −N5, relative amount [6, 17]: 2 (2=weak (5–10000)); Degradation product −C1, relative amount [6, 18]: 2 (2=weak (5–10000)); Degradation product −C2, relative amount [6, 18]: 2 (2=weak (5–10000)); Degradation product −C3, relative amount [6, 18]: 0; Degradation product −C6, relative amount [6, 18]: 0; Degradation product −N3, C2, relative amount [6, 18]: 0; Degradation product −N3, relative amount [6, 18]: 0; Degradation product −N5, C2, relative amount [6, 18]: 0; Degradation product −N5, relative amount [6, 18]: 0
